Measured values from ChEMBL document CHEMBL1157091, “An unprecedented biogenetic-type chemical synthesis of 1(15-->11) abeotaxanes from normal taxanes” (J Nat Prod, 2010).

Legend:
MCF7 = assay: Cytotoxicity against human MCF7 cells; assay type: functional, cell-based
MDA-MB-231 = assay: Cytotoxicity against human MDA-MB-231 cells; assay type: functional, cell-based
[1] = Cytotoxicity against human […] cells; assay type: cell-based

| SMILES | IC50 (MCF7) [µM] | IC50 (MDA-MB-231) [µM] | IC50 [1] [µM] |
| --- | --- | --- | --- |
| C=C1[C@H]2C[C@@H]3C[C@H](OC(C)=O)C(C)=C([C@@H](OC(C)=O)[C@H](OC(C)=O)[C@]2(C)[C@@H](OC(C)=O)C[C@@H]1O)C3(C)C | > 50 | > 50 | > 50 |
| CC(=O)O[C@H]1C(=O)[C@@]2(C)[C@H]([C@H](OC(=O)c3ccccc3)[C@]3(O)C[C@H](OC(=O)[C@H](O)[C@@H](NC(=O)c4ccccc4)c4ccccc4)C(C)=C1C3(C)C)[C@]1(OC(C)=O)CO[C@@H]1C[C@@H]2O [PACLITAXEL] | – | – | 27 |
